Measurements as given in US20210318306A1, “Compositions for and Methods of Neutralizing Lipopolysaccharide Toxicity and Methods of Identifying the Same” (priority 2020, published 2021).
Several values for one entry are separate records, joined by “and”; a condition that tells them apart may be missing. Equal values may be shown once. Entries after “also recorded” stand apart in the source; their conditions may differ.

Experiments:
Format in all cases: cell-based, human
HEK-TLR4 cells = experiment: P. gingivalis LPS-induced cytokine secretion by HEK-TLR4 cells, Luminex 5-plex magnetic bead panel (Example 2)
Procedure: Commercially available HEK-Blue TLR4 cells (Invitrogen) are recombinant HEK 293 cells that have been transformed with DNA that encodes TLR4 that is expressed and present on the cell surface. HEK-Blue TLR4 cells are grown ion culture and used can be used in experimental assays to identify test compositions that modulate inflammation pathways stimulated by TLR4-LPS interaction.
Initial for LPS and zinc-containing starting solutions were made as follows. An LPS starting solution was prepared as follows: a […] solution of LPS was prepared using 2 μl of 1 mg/ml LPS and 10 ml media. Multiple zinc starting solutions were each prepared using media as diluent: a) 20 mM zinc oxide, b) 2 mM zinc oxide, c) 20 mM zinc citrate, d) 2 mM zinc citrate, e) 20 mM of a composition containing a 2:1 mixture of zinc oxide and zinc citrate and f) 2 mM of a composition containing a 2:1 mixture of zinc oxide and zinc citrate. The starting solutions were used to prepare various test samples.
In some embodiments, control assays include “Untreated”, in which eight Zinc test samples without LPS were made: […], 10 mM zinc oxide+zinc citrate, 1 mM zinc oxide+zinc citrate, 10 mM zinc oxide+zinc citrate+arginine and 1 mM zinc oxide+zinc citrate+arginine, The test samples without LPS were prepared by diluting the zinc starting solutions with equal parts media. Eight test samples with LPS were made: […], […], […], […], 10 mM zinc oxide+zinc citrate LPS, 1 mM zinc oxide+zinc citrate LPS, 10 mM zinc oxide+zinc citrate+arginine LPS and 1 mM zinc oxide+zinc citrate+arginine LPS. The test samples with LPS were prepared by diluting the zinc starting solutions with equal parts LPS starting solution.
(§1) Cells were grown to 70-80% confluent in a 96 well plate. 100 uL of a test sample was added to a well. Cells with test sample were incubated overnight. Media was collected from each well and transferred to a corresponding well in a 96-well plate. Assays to measure proinflammatory cytokines including IL-8 secretion were performed for each well.
(§2) Inflammation markers in supernatants collected from HEK-Blue cells co-incubated with Zinc and Zinc+LPS were quantified using Luminex Magpix instrument (MAGPIX-XPON42) and human 5-plex cytokine/chemokine Magnetic bead panel (Millipore HCYTOMAG-60K). The human 5-plex cytokine/chemokine Magnetic bead panel quantifies TNF-α, IL-6, IL-8, IL-1β and GM-CSF.
The Luminex Kit Procedure outlined in the instruction manual for each separate Luminex kit was performed on the supernatants collected from the HEK-Blue cells co-incubated with Zinc test solutions without LPS and Zinc test solutions plus LPS. Quality controls in range for the specified analytes were performed to ensure levels were within the acceptable range.
To run the Luminex Test, all necessary calibration and verification procedures as outlined by the MagPix and xPonent softwares were completed and the appropriate protocol for the assay was selected. The standards were verified to be correct and complete the plate layout of samples was verified. […] The “Avg. Result” was identified in the results generated.
Experiments were conducted to identify compositions that inhibit P. gingivalis LPS-induced IL-8, TNFα, GM-CSF, IL-1β and IL-6 by HEK-TLR4 cells. HEK-TLR4 cells in 96 well plates were contacted with 100 μl samples. IL-8, TNFα, GM-CSF, IL-1β and IL-6 were detected as described above.

HEK-Blue hTLR4 cells [1] = experiment: IL-8 in HEK-Blue hTLR4 cell supernatants with standard P.g. LPS and simple solutions at 1 mM vs 10 mM total zinc (Example 4)
Procedure: (§3) HEK-Blue hTLR4 cells (Invivogen, cat #hkb-htlr4) were cultured in a DMEM culture medium supplemented with 10% FBS and 1% penstrep at 37° C. with 5% CO2. LPS from Porphyromonas gingivalis (P.g. LPS; Invivogen, cat #tlrl-pglps and cat #tlrl-ppglps) activates TLR4 receptor and downstream inflammation in HEK-Blue hTLR4 cells. P.g. LPS is co-incubated with HEK-Blue hTLR4 cells in the absence or presence of the simple solutions. Standard and ultrapure P.g. LPS were both used due to ultrapure being a specific ligand for the TLR4 receptor while standard LPS is a ligand for both TLR2 and TLR4.
(§4) The simple solutions a) Zinc Oxide (ZnO), b) Zinc Citrate (ZnCitrate), c) Zinc Oxide+Zinc Citrate (Dual Zinc; DZ), d) Dual Zinc+Arginine (DZA, zinc oxide, zinc citrate and arginine), and e) L-Arginine (Arg) were diluted at different concentrations with culture medium.
1) experiments using 1 mM vs 10 mM total zinc; and
(§5) HEK-Blue hTLR4 cells were plated in 96-well plates and grown until confluent at 37° C. and 5% CO2 in HEK-blue selection media (DMEM with 10% FBS, 1% penicillin-streptomycin, and antibiotics for HEK-blue selection (Invivogen, cat #hb-sel)). Cells were co-incubated overnight with varying concentrations of different zinc actives as well as arginine and stimulated with either 0.1 μg/mL standard P. gingivalis LPS or 1 μg/mL ultrapure P. gingivalis LPS. Cell supernatants were collected for human inflammation cytokine panels using Multiplex and ELISA analysis.
(§6) Multiplex analysis was performed using the MILLIPLEX MAP Human Cytokine/Chemokine Magnetic Bead Panel—Immunology Multiplex Assay for IL-1, IL-6, IL-8, TNFα, and GM-CSF (Millipore Sigma, cat #HCYTOMAG-60K).
Testing was performed using total zinc concentrations to normalize the amount the zinc applied in the cell culture medium during co-incubation. Two concentrations of total zinc ion are based on the potential amount of zinc retained on the mouth soft tissue surface.

HEK-Blue hTLR4 cells [2] = experiment: E. coli LPS- and P. gingivalis LPS-induced IL-8 by HEK-Blue hTLR4 cells (Example 3)
Procedure: as §1, §2
Experiments were conducted to identify compositions that inhibit E. coli LPS-induced IL-8 and P. gingivalis LPS-induced IL-8 by HEK-Blue hTLR4 cells. HEK-TLR4 cells in 96 well plates were contacted with 100 μl samples. IL-8 was detected as described above.

HEK-Blue hTLR4 cells [3] = experiment: IL-8 dose response in HEK-Blue hTLR4 cells with P.g. LPS 1 μg/ml and 3X-24X dilutions of simple solutions (Example 4)
Procedure: as §3, §4
2) experiments using 3×, 6×, 12×, and 24× dilution fold of the simple solutions (see Table 6 below).
as §5, §6
In order to understand the role of Arginine in the inhibition of LPS induced inflammation, a dose response experiment was performed using ultrapure P.g. LPS, which only specifically targets TLR4 receptor, in order to maximize the activation of NF-kB and expression of IL-8.
The testing samples were prepared as the stock simple solutions. […] The first serial dilution was made 3 times with water, a dilution factor simulating dilution of toothpastes while brushing. Additional serial dilutions were made by 2-fold of the first dilution to study dose response effect.

[4] = 300 ppm with 0.1μ/ml P. gingivalis LPS
[5] = 600 ppm with 0.1μ/ml P. gingivalis LPS
[6] = P. gingivalis LPS, 300 and 600 ppm
[7] = 1 mM total zinc with standard P.g. LPS (0.1 μg/ml)
[8] = 10 mM total zinc with standard P.g. LPS (0.1 μg/ml)
[9] = 3X dilution of stock simple solution (Table 6) with P.g. LPS (1 μg/ml)
[10] = 6X dilution of stock simple solution (Table 6) with P.g. LPS (1 μg/ml)
[11] = 12X dilution of stock simple solution (Table 6) with P.g. LPS (1 μg/ml)
[12] = 24X dilution of stock simple solution (Table 6) with P.g. LPS (1 μg/ml)

## [O]=[Zn] [ZnO, zinc oxide]
HEK-TLR4 cells; [4]
  GM-CSF (raw data, single replicate): 0.5501 pg/ml (2×) and 0.633 pg/ml and 1.577 pg/ml
  IL-1β (raw data, single replicate): 6.491 pg/ml (2×) and 5.944 pg/ml and 6.674 pg/ml
  IL-6 (raw data, single replicate): 3.316 pg/mL and 3.775 pg/mL and 3.171 pg/mL and 4.174 pg/mL
  IL-8 (average result): 24200.24439257880 pg/mL
  IL-8 (raw data, single replicate): 31890.081340469700 pg/mL and 39006.703793117100 pg/mL and 13910.330133842900 pg/mL and 11993.862302885500 pg/mL
  TNF-α (average result): 42.3 pg/mL
  TNFα (raw data, single replicate): 41.56 pg/mL and 39.8 pg/mL and 38.16 pg/mL and 49.7 pg/mL
HEK-TLR4 cells; 300 ppm, without LPS
  GM-CSF (raw data, single replicate): <3.2 pg/ml (2×) and 0.3057 pg/ml and 0.5501 pg/ml
  IL-1β (raw data, single replicate): 0.4614 pg/ml (2×) and 0.8647 pg/ml and 1.507 pg/ml
  IL-6 (raw data, single replicate): 0.4605 pg/mL and 0.6587 pg/mL and 0.9797 pg/mL and 1.293 pg/mL
  IL-8 (average result): 452.8 pg/mL
  IL-8 (raw data, single replicate): 340.2 pg/mL and 393.1 pg/mL and 458.8 pg/mL and 619.1 pg/mL
  TNF-α (average result): 1.202 pg/mL
  TNFα (raw data, single replicate): 0.9029 pg/mL and 1.031 pg/mL and 1.244 pg/mL and 1.631 pg/mL
HEK-TLR4 cells; [5]
  GM-CSF (raw data, single replicate): 1.142 pg/mL and 1.315 pg/mL and 0.3863 pg/mL and 0.3057 pg/mL
  IL-1β (raw data, single replicate): 6.735 pg/mL and 6.309 pg/mL and 6.035 pg/mL and 5.701 pg/mL
  IL-6 (raw data, single replicate): 2.617 pg/mL and 2.44 pg/mL and 1.782 pg/mL and 2.023 pg/mL
  IL-8 (average result): 17453.90185032290 pg/mL
  IL-8 (raw data, single replicate): 21030.114488079100 pg/mL and 14514.694724312700 pg/mL and 20392.976523123200 pg/mL and 13877.821665776500 pg/mL
  TNF-α (average result): 26.47 pg/mL
  TNFα (raw data, single replicate): 43.99 pg/mL and 24.75 pg/mL and 19.13 pg/mL and 18.02 pg/mL
HEK-TLR4 cells; 600 ppm, without LPS
  GM-CSF (raw data, single replicate): 0.8854 pg/ml and 0.2263 pg/ml and 0.001671 pg/ml (2×)
  IL-1β (raw data, single replicate): 2.871 pg/mL and 1.039 pg/mL and 0.4329 pg/mL and 0.4044 pg/mL
  IL-6 (raw data, single replicate): 1.011 pg/ml and 0.3248 pg/ml and <3.2 pg/ml (2×)
  IL-8 (average result): 558.8 pg/mL
  IL-8 (raw data, single replicate): 993.3 pg/mL and 512.5 pg/mL and 355.4 pg/mL and 374 pg/mL
  TNF-α (average result): 2.405 pg/mL
  TNFα (raw data, single replicate): 3.729 pg/mL and 2.195 pg/mL and 1.804 pg/mL and 1.891 pg/mL
HEK-TLR4 cells; [6]
  effect on LPS-induced TNFα (in words): reduced LPS-induced TNFα; also recorded: significantly reduced
  effect on induction of IL-8 by LPS (in words): significantly reduced; also recorded: comparatively small effect
HEK-Blue hTLR4 cells [1]; [7]
  IL-8 Concentration, Average: 39.5 pg/mL
  IL-8 Concentration, replicate: 42.95 pg/mL and 30.75 pg/mL and 35.45 pg/mL and 48.85 pg/mL
HEK-Blue hTLR4 cells [1]; [8]
  IL-8 Concentration, Average: 18.9 pg/mL
  IL-8 Concentration, replicate: 20.35 pg/mL and 27.65 pg/mL and 10.45 pg/mL and 16.95 pg/mL
HEK-Blue hTLR4 cells [1]; at both 1 mM and 10 mM
  IL-8 induced by co-incubation with P.g. LPS (in words): reduced
HEK-Blue hTLR4 cells [2]; 100 ppm with 1.0 μg/ml E. coli LPS
  IL-8 (average): 317267829 pg/mL
HEK-Blue hTLR4 cells [2]; 100 ppm with 1.0 μg/ml P. gingivalis LPS
  IL-8 (average): 210374063 pg/mL
HEK-Blue hTLR4 cells [2]; 100 ppm, without LPS
  IL-8 (average): 610.1 pg/mL
HEK-Blue hTLR4 cells [2]; 500 ppm and 100 ppm
  inhibitory effect on P. gingivalis LPS-induced IL-8 (in words): inhibitory effect
HEK-Blue hTLR4 cells [2]; 500 ppm with 1.0 μg/ml E. coli LPS
  IL-8 (average): 564963251 pg/mL
HEK-Blue hTLR4 cells [2]; 500 ppm with 1.0 μg/ml P. gingivalis LPS
  IL-8 (average): 275576697 pg/mL
HEK-Blue hTLR4 cells [2]; 500 ppm, without LPS
  IL-8 (average): 448.6 pg/mL
HEK-Blue hTLR4 cells [3]; [9]
  IL-8 Concentration, Average: 29.0 pg/mL
  IL-8 Concentration, replicate: 32.6 pg/mL and 25.5 pg/mL
HEK-Blue hTLR4 cells [3]; [10]
  IL-8 Concentration, Average: 510.0 pg/mL
  IL-8 Concentration, replicate: 646.1 pg/mL and 374.0 pg/mL
HEK-Blue hTLR4 cells [3]; [11]
  IL-8 Concentration, Average: 2658.0 pg/mL
  IL-8 Concentration, replicate: 2699.5 pg/mL and 2616.4 pg/mL
HEK-Blue hTLR4 cells [3]; [12]
  IL-8 Concentration, Average: 3015.5 pg/mL
  IL-8 Concentration, replicate: 3010.4 pg/mL and 3020.6 pg/mL
HEK-Blue hTLR4 cells [3]; when dilution folds increase
  inhibition of IL-8 (in words): lose the inhibition of IL-8 gradually
